In one test the test system is MDA-MB-231. Kind of test: Antiproliferative activity against human MDA-MB-231 cells assessed as reduction in cell viability after 72 hrs by MTT assay. It counts as functional, cell-based. As to conditions: MDA-MB-231, 72 h. A general note: Tetrazolium dyes change colour on reduction, which living cells bring about.
For another test, the system named is MDA-MB-453. Kind of test: Antiproliferative activity against human MDA-MB-453 cells assessed as reduction in cell viability after 72 hrs by MTT assay. It counts as functional, cell-based. As to conditions: MDA-MB-453, 72 h.
The subject of a further test is MCF7. Kind of test: Antiproliferative activity against human MCF7 cells assessed as reduction in cell viability after 72 hrs by MTT assay. It counts as functional, cell-based. The note with it: MCF7, 72 h.
For the next test, the system named is NCI-H1299. Kind of test: Antiproliferative activity against human NCI-H1299 cells assessed as reduction in cell viability after 72 hrs by MTT assay. The format is functional, cell-based. As to conditions: NCI-H1299, 72 h.
The target in test [1] is T1, Cyclin-dependent kinase 4/cyclin D1 (Homo sapiens) (UniProt P11802+P24385). Kind of test: Inhibition of CDK4/Cyclin D1 (unknown origin) at 200 nM using ATP by mobility shift assay. It counts as protein-complex assay.
The target in test [2] is T2, CDK6/cyclin D3 (Homo sapiens) (UniProt P30281+Q00534). Kind of test: Inhibition of CDK6/Cyclin D3 (unknown origin) at 20 nM using ATP by mobility shift assay. The format is protein-complex assay.
Test [3] has as its target T1, Cyclin-dependent kinase 4/cyclin D1 (Homo sapiens). Kind of test: Inhibition of CDK4/Cyclin D1 (unknown origin) at 20 nM using ATP by mobility shift assay. It counts as protein-complex assay.
Test [4] has as its target T2, CDK6/cyclin D3 (Homo sapiens). Kind of test: Inhibition of CDK6/Cyclin D3 (unknown origin) at 200 nM using ATP by mobility shift assay. It counts as protein-complex assay.

Some results are limits rather than exact numbers.

With `C=CC(=O)N1CCN(c2ccc(Nc3ncc4c(C)c(C(C)=O)c(=O)n(C5CCCC5)c4n3)nc2)CC1`, the IC50 is more than 20 µM in the test on MDA-MB-231, 6.96 µM with MDA-MB-453, more than 20 µM in the test with MCF7 and 8.5 µM with NCI-H1299.

Consider `C=CC(=O)NCCCNC(=O)CCN1CCN(c2ccc(Nc3ncc4c(C)c(C(C)=O)c(=O)n(C5CCCC5)c4n3)nc2)CC1`, for which the IC50 with MDA-MB-231 was 18.3 µM; in the test on MDA-MB-453, more than 20 µM; with MCF7, more than 20 µM; with NCI-H1299, more than 20 µM.

For the compound `CC(=O)c1c(C)c2cnc(Nc3ccc(N4CCN(C(C)=O)CC4)cn3)nc2n(C2CCCC2)c1=O`, the IC50 with MDA-MB-231, in the test with MDA-MB-453, in the test with MCF7 and with NCI-H1299 was more than 50 µM each time. Further, the inhibition was determined as 87.8% in test [1], 68.5% in test [2], 43.2% in test [3] and 100% in test [4].

Turning to `CC(=O)c1c(C)c2cnc(Nc3ccc(N4CCN(CCC(=O)NCCNCC#N)CC4)cn3)nc2n(C2CCCC2)c1=O`, the IC50 in the test with MDA-MB-231, in the test with MDA-MB-453, in the test on MCF7 and in the test with NCI-H1299 was more than 20 µM throughout.

For `CC(=O)c1c(C)c2cnc(Nc3ccc(N4CCN(CCC(=O)NCCOCCOCCNC(=O)CCl)CC4)cn3)nc2n(C2CCCC2)c1=O`, the IC50 in the test with MDA-MB-231 is 8.92 µM; in the test with MDA-MB-453 it was 9.2 µM; in the test on MCF7, 15.8 µM; with NCI-H1299, more than 20 µM.

Take `CC(=O)c1c(C)c2cnc(Nc3ccc(N4CCN(CCC(=O)NCCOCCNC(=O)CCl)CC4)cn3)nc2n(C2CCCC2)c1=O`: the IC50 with MDA-MB-231 was more than 20 µM; with MDA-MB-453, 6.11 µM; with MCF7 it was 11.5 µM; in the test on NCI-H1299 it was more than 20 µM. Further, the inhibition in test [1] is 94.4%; in test [2], 91.2%; in test [3], 60.5%; in test [4] it was 103%.

As to `C=CC(=O)NCCOCCNC(=O)CN1CCN(c2ccc(Nc3ncc4c(C)c(C(C)=O)c(=O)n(C5CCCC5)c4n3)nc2)CC1`, the IC50 in the test on MDA-MB-231 was more than 20 µM; in the test with MDA-MB-453, 15.4 µM; in the test on MCF7, more than 20 µM; in the test on NCI-H1299, more than 20 µM.

As to `CC(=O)c1c(C)c2cnc(Nc3ccc(N4CCN(CC(=O)NCCCCCCNC(=O)CCl)CC4)cn3)nc2n(C2CCCC2)c1=O`, the IC50 stood at 9.89 µM in the test on MDA-MB-231, 5.11 µM in the test on MDA-MB-453, 14.5 µM with MCF7 and 8.88 µM in the test on NCI-H1299. Further, the inhibition in test [1] is 90.9%; in test [2], 71.3%; in test [3], 45.7%; in test [4] it was 98.2%.

Regarding `CC(=O)c1c(C)c2cnc(Nc3ccc(N4CCN(CC(=O)NCCCCNCC#N)CC4)cn3)nc2n(C2CCCC2)c1=O`, the IC50 with MDA-MB-231, with MDA-MB-453, in the test on MCF7 and in the test with NCI-H1299 was more than 20 µM throughout.

Turning to `C=CC(=O)NCCCCNC(=O)CCN1CCN(c2ccc(Nc3ncc4c(C)c(C(C)=O)c(=O)n(C5CCCC5)c4n3)nc2)CC1`, the IC50 in the test on MDA-MB-231, with MDA-MB-453, in the test with MCF7 and in the test on NCI-H1299 was more than 20 µM in each case.

Turning to `CC(=O)c1c(C)c2cnc(Nc3ccc(N4CCN(CCC(=O)NCCCCCCNC(=O)CCl)CC4)cn3)nc2n(C2CCCC2)c1=O`, the IC50 in the test with MDA-MB-231, with MDA-MB-453, with MCF7 and with NCI-H1299 was more than 20 µM each time.

As for `CC(=O)c1c(C)c2cnc(Nc3ccc(N4CCN(CCC(=O)NCCCCCCNCC#N)CC4)cn3)nc2n(C2CCCC2)c1=O`, the IC50 in the test on MDA-MB-231, in the test on MDA-MB-453, with MCF7 and with NCI-H1299 was more than 20 µM each time.

As for `CC(=O)c1c(C)c2cnc(Nc3ccc(N4CCN(CC(=O)NCCCNCC#N)CC4)cn3)nc2n(C2CCCC2)c1=O`, the IC50 with MDA-MB-231 was more than 20 µM; with MDA-MB-453, 15.5 µM; in the test on MCF7, more than 20 µM; in the test with NCI-H1299 it was 19.2 µM.

For `CC(=O)c1c(C)c2cnc(Nc3ccc(N4CCN(CC(=O)NCCOCCOCCNC(=O)CCl)CC4)cn3)nc2n(C2CCCC2)c1=O`, the IC50 with MDA-MB-231, in the test on MDA-MB-453, with MCF7 and in the test on NCI-H1299 was more than 20 µM each time.

`C=CC(=O)NCCCNC(=O)CN1CCN(c2ccc(Nc3ncc4c(C)c(C(C)=O)c(=O)n(C5CCCC5)c4n3)nc2)CC1`: the IC50 was 18 µM in the test with MDA-MB-231, more than 20 µM in the test on MDA-MB-453, more than 20 µM with MCF7 and more than 20 µM in the test on NCI-H1299.

Regarding `C=CC(=O)NCCOCCOCCNC(=O)CCN1CCN(c2ccc(Nc3ncc4c(C)c(C(C)=O)c(=O)n(C5CCCC5)c4n3)nc2)CC1`, the IC50 in the test on MDA-MB-231 is more than 20 µM; in the test on MDA-MB-453, 8.19 µM; in the test with MCF7 it was more than 20 µM; in the test on NCI-H1299, more than 20 µM.

For the compound `CC(=O)c1c(C)c2cnc(Nc3ccc(N4CCN(CCC(=O)NCCOCCNCC#N)CC4)cn3)nc2n(C2CCCC2)c1=O`, the IC50 with MDA-MB-231, in the test on MDA-MB-453, in the test with MCF7 and in the test with NCI-H1299 was more than 20 µM throughout.

For `C=CC(=O)NCCOCCNC(=O)CCN1CCN(c2ccc(Nc3ncc4c(C)c(C(C)=O)c(=O)n(C5CCCC5)c4n3)nc2)CC1`, the IC50 in the test with MDA-MB-231 was more than 20 µM; in the test on MDA-MB-453, 5.25 µM; in the test with MCF7, more than 20 µM; in the test with NCI-H1299, more than 20 µM.

Consider `CC(=O)c1c(C)c2cnc(Nc3ccc(N4CCN(CC(=O)NCCCCCCNCC#N)CC4)cn3)nc2n(C2CCCC2)c1=O`, for which the IC50 in the test with MDA-MB-231, in the test on MDA-MB-453, with MCF7 and with NCI-H1299 was more than 20 µM throughout.

As to `C=CC(=O)NCCNC(=O)CN1CCN(c2ccc(Nc3ncc4c(C)c(C(C)=O)c(=O)n(C5CCCC5)c4n3)nc2)CC1`, the IC50 is 18.7 µM with MDA-MB-231, more than 20 µM with MDA-MB-453, more than 20 µM in the test on MCF7 and more than 20 µM in the test on NCI-H1299.

On to `CC(=O)c1c(C)c2cnc(Nc3ccc(N4CCN(CC(=O)NCCNCC#N)CC4)cn3)nc2n(C2CCCC2)c1=O`, for which the IC50 with MDA-MB-231 was more than 20 µM; with MDA-MB-453, 9.89 µM; in the test on MCF7, more than 20 µM; in the test with NCI-H1299 it was more than 20 µM.

Take `CC(=O)c1c(C)c2cnc(Nc3ccc(N4CCN(CC(=O)NCCOCCOCCNCC#N)CC4)cn3)nc2n(C2CCCC2)c1=O`: the IC50 with MDA-MB-231, in the test with MDA-MB-453, with MCF7 and in the test with NCI-H1299 was more than 20 µM throughout.

As for `CC(=O)c1c(C)c2cnc(Nc3ccc(N4CCN(CCC(=O)NCCCCNCC#N)CC4)cn3)nc2n(C2CCCC2)c1=O`, the IC50 is 12.5 µM in the test on MDA-MB-231, 12.8 µM in the test with MDA-MB-453, more than 20 µM in the test with MCF7 and 8.42 µM in the test on NCI-H1299.

With `C=CC(=O)NCCNC(=O)CCN1CCN(c2ccc(Nc3ncc4c(C)c(C(C)=O)c(=O)n(C5CCCC5)c4n3)nc2)CC1`, the IC50 in the test on MDA-MB-231, in the test on MDA-MB-453, in the test with MCF7 and with NCI-H1299 was more than 20 µM each time.

For `C=CC(=O)NCCCCCCNC(=O)CCN1CCN(c2ccc(Nc3ncc4c(C)c(C(C)=O)c(=O)n(C5CCCC5)c4n3)nc2)CC1`, the IC50 in the test with MDA-MB-231, with MDA-MB-453, in the test on MCF7 and in the test on NCI-H1299 was more than 20 µM each time.

Take `CC(=O)c1c(C)c2cnc(Nc3ccc(N4CCN(CCC(=O)NCCNC(=O)CCl)CC4)cn3)nc2n(C2CCCC2)c1=O`: the IC50 in the test on MDA-MB-231, with MDA-MB-453, in the test on MCF7 and with NCI-H1299 was more than 20 µM throughout.

Regarding `CC(=O)c1c(C)c2cnc(Nc3ccc(N4CCN(CC#N)CC4)cn3)nc2n(C2CCCC2)c1=O`, the IC50 was 17.9 µM with MDA-MB-231, more than 20 µM in the test with MDA-MB-453, more than 20 µM in the test on MCF7 and more than 20 µM in the test on NCI-H1299.

Consider `C=CC(=O)NCCCCNC(=O)CN1CCN(c2ccc(Nc3ncc4c(C)c(C(C)=O)c(=O)n(C5CCCC5)c4n3)nc2)CC1`, for which the IC50 with MDA-MB-231, in the test on MDA-MB-453, in the test on MCF7 and in the test on NCI-H1299 was more than 20 µM in each case.

For `CC(=O)c1c(C)c2cnc(Nc3ccc(N4CCN(CCC(=O)NCCOCCOCCNCC#N)CC4)cn3)nc2n(C2CCCC2)c1=O`, the IC50 in the test with MDA-MB-231, in the test on MDA-MB-453, in the test with MCF7 and in the test on NCI-H1299 was more than 20 µM in each case.

Regarding `CC(=O)c1c(C)c2cnc(Nc3ccc(N4CCN(CC(=O)NCCOCCNCC#N)CC4)cn3)nc2n(C2CCCC2)c1=O`, the IC50 with MDA-MB-231, in the test on MDA-MB-453, in the test with MCF7 and in the test with NCI-H1299 was more than 20 µM throughout.

Regarding `C=CC(=O)NCCOCCOCCNC(=O)CN1CCN(c2ccc(Nc3ncc4c(C)c(C(C)=O)c(=O)n(C5CCCC5)c4n3)nc2)CC1`, the half-maximal inhibitory concentration (IC50) in the test on MDA-MB-231 is more than 20 µM; with MDA-MB-453 it was 10.2 µM; in the test on MCF7, more than 20 µM; in the test with NCI-H1299, more than 20 µM.

Consider `CC(=O)c1c(C)c2cnc(Nc3ccc(N4CCN(CCC(=O)NCCCNCC#N)CC4)cn3)nc2n(C2CCCC2)c1=O`, for which the IC50 in the test with MDA-MB-231, with MDA-MB-453, in the test with MCF7 and in the test on NCI-H1299 was more than 20 µM each time.

As to `C=CC(=O)NCCCCCCNC(=O)CN1CCN(c2ccc(Nc3ncc4c(C)c(C(C)=O)c(=O)n(C5CCCC5)c4n3)nc2)CC1`, the IC50 was 14.8 µM with MDA-MB-231, more than 20 µM with MDA-MB-453, more than 20 µM in the test with MCF7 and more than 20 µM in the test with NCI-H1299.

What is called IC50 is the concentration needed to halve the response being measured. In general, inhibition refers to the drop in the measured response relative to a control, in per cent.
